One experiment relates to Bax. As to the kind of experiment: Bax translocation from cytosol to mitochondria in rat hepatocytes. The class given is cell-based. The following applies: preincubation with UDCA. How it is done:
Isolation of cytosol and mitochondrial fractions and determination of cytochrome c and Bax content. Freshly isolated rat hepatocytes were cultured for 3 hours as described above and then incubated with William's medium supplemented with either 50 μM of DCA for 4 h, 1 nM TGF-β1 for 24 h and […] okadaic acid for 16 h, in the presence or absence of 100 μM UDCA, or no addition (control). Time-course experiments were also performed. Cells (1.0×10^7/ml) were harvested by centrifugation at 600×g for 5 min at 4° C. The cell pellets were washed once in ice-cold PBS and resuspended with 3 volumes of isolation buffer containing 20 mM Hepes-KOH, pH 7.5, 10 mM KCl, 1.5 mM MgCl2, 1 mM sodium EDTA, 1 mM sodium EGTA, 1 mM dithiothreitol (DTT), suplemmented with the COMPLETE protease inhibitor cocktail (Boehringer Mannheim Biochemicals, Inc., Indianapolis, Ind.) in 250 mM sucrose. After chiling on ice for 15 min, the cells were disrupted by 40 stokes of a glass homogeneizer and the homogenates were centrifuged twice at 2,500×g for 10 min at 4° C. to remove unbroken cells and nuclei. The mitochondria were pelleted by centrifugation at 12,000×g for 30 min at 4° C., resuspended in isolation buffer containing 250 mM sucrose and frozen at −80° C. […]

The subject of another experiment is Hep G2 cells. As to the kind of experiment: Anti-Fas antibody-induced apoptosis, Hep G2 cells. In kind it is cell-based. Here is the method: Incubation of cells with ethanol, TGF-β1, anti-Fas antibody or okadaic acid. Freshly isolated rat hepatocytes were cultured for 3 h as described above and then incubated with William's E medium supplemented with either 0.5% ethanol, 50 μM UDCA, ethanol plus UDCA, or no addition (control) for 2 h and 4 h. HuH-7 cells were incubated with Dulbecco's medium supplemented with either 1 nM TGF-β1 (R & D Systems, Minneapolis, Minn.), 100 μM UDCA, TGF-β1+UDCA, or no addition (control) for 24 h, 48 h, and 72 h. Hep G2 cells were incubated with Dulbecco's medium supplemented with either 0.5 μg/ml of anti-Fas antibody CH-11 (Upstate Biotechnology, Inc., Lake Placid, N.Y.), 100 μM UDCA, CH-11+UDCA, or no addition for 48 h. Both HuH-7 cells and human osteogenic sarcoma Saos-2 cells were cultured in Dulbecco's medium supplemented with either 50 nM okadaic acid (Boehringer Mannheim Biochemicals, Inc, Indianapolis, Ind.), 100 μM UDCA, okadaic acid+UDCA, or no addition for 48 h. […]
Morphological evaluation of apoptosis. […] Fluorescence was visualized with a Zeiss standard fluorescence microscope (Carl Zeiss, Inc., Thornwood, N.Y.). […] Stained nuclei were scored by blind analysis and categorized according to the condensation and staining characteristics of chromatin. […] Three fields per dish of approximately 500 nuclei were counted; mean values are expressed as the percent of apoptotic nuclei.

The next experiment concerns Bad. As to the kind of experiment: Western blot, liver of bile acid fed rats: Bad. In kind it is in vivo, rat. The following applies: bile acid feeding. For orientation: In western blotting, separated proteins are transferred to a membrane and probed.

Molecules are shown by their SMILES.

The results in this text go back to US20030044413A1, “Methods of limiting apoptosis of cells” (Regents of the University of Minnesota, priority 1998, published 2003).

Experimental for Bad: Male 160-175 g Sprague-Dawley rats (Sprague-Dawley, Indianapolis, Ind.), were maintained on a 12 h light-dark cycle and fed standard laboratory chow ad libitum for 3 days. The animals were then transferred to metabolic cages and fed diets of standard laboratory chow supplemented with either no bile acid or 0.4% (wt/wt) DCA, 0.4% UDCA, or a combination of DCA+UDCA (Bio-Serv, Frenchtown, N.J.). On day 10, the animals were sacrificed by exsanguination under ether anesthesia between 9 a.m. and 11 a.m. The livers were removed, rinsed in normal saline, and flash-frozen in liquid nitrogen until western blot analyses of apoptosis-related proteins were performed.
Cytoplasmic proteins were isolated from rat liver tissue as described previously (Trembley et al., Cell Growth & Differ., 7, 903-916 (1996)). […] Cytoplasmic and mitochondrial protein concentrations were determined using the Bio-Rad protein assay (Bio-Rad Laboratories). […]
Video densitometry was accomplished using a Macintosh II (Apple Computer, Cupertino, Calif.) coupled to a Data Translation DT2255 video digitizer (Data Translation, Marlboro, Mass.) and a JVC GX-N8 video camera (JVC Corporation of America, Elmwood Park, N.J.) as described previously (Kren et al., J. Cell Biol., 123, 707-718 (1993)). Quantitation of the autoradiograms was performed using the NIH Image 1.4 densitometric analysis program.

Consider `C[C@H](CCC(=O)O)[C@H]1CC[C@H]2[C@@H]3[C@@H](O)C[C@@H]4C[C@H](O)CC[C@]4(C)[C@H]3CC[C@]12C` [UDCA, ursodeoxycholic acid], for which the “prevention of Bax translocation” value with Bax is 45%. In addition, the “cells exhibiting apoptotic changes” value in the experiment with Hep G2 cells (0.5 μg/ml CH-11 or 100 μM UDCA alone, 48 h) is recorded as 0.7%. In addition, the “Inhibition % Apoptosis” value with Hep G2 cells (inducer CH-11, Hep G2, inhibition by UDCA) is listed as 83.2 ± 7.0%.

As to `C[C@H](CCC(=O)O)[C@H]1CC[C@H]2[C@@H]3CC[C@@H]4C[C@H](O)CC[C@]4(C)[C@H]3C[C@H](O)[C@]12C` [DCA, deoxycholic acid], the “cytoplasmic Bad expression, increase” value with Bad is listed as “approximately 2 fold”.
